Data from patent US10556860B2, “hTERT modulators and methods of use” (Arizona Board of Regents on Behalf of the University of …, priority 2015, dated 2020).

Columns and labels:
[1] = test system: BCL2 mRNA in WT and G146A melanoma cells; test: qPCR of BCL2 mRNA in melanoma cells; type: cell-based, human; conditions: 72 h
Description: Cell cultures. MCF7 and melanoma (UACC 383) cells were cultured in media of RPMI-1640 with 10% FBS and 1% penicillin/streptomycin. For melanoma cells UACC 2512, UACC 3090, UACC 1729, and UACC 2528, 20% FBS was included in the RPMI media instead of 10% FBS. Cells were incubated at 37° C. with 5% CO2.
qPCR. MCF7 and melanoma cells were treated with GTC365 and BRACO-19 for 72 h. Total RNA was extracted using an RNeasy mini-prep kit (Qiagen) and quantitated by measuring absorbance at 260 nm. cDNA was synthesized using a Takara PrimeScript™ RT Reagent Kit with gDNA eraser and then used as a template for qPCR. The qPCR was performed using Kapa Probe Fast qPCR Master Mix with ABI Taqman probes of hTERT (Hs00972656_m1), BCL2 (HS00608023_m1, FAM-labeled) or MYC (Hs00153408_m1), and GAPDH (Hs02758991_g1, VIC-labeled). The Ct values were measured by running Rotor-Gene Q, and the relative quantity of hTERT, BCL2, and MYC mRNA was obtained compared to GAPDH as an internal control.
To determine the cellular effect of GTC365 on proliferation as well as suppression of the activation of hTERT by G124A, G124/125A, G138/139A, and G146A mutants, melanoma cell lines were used alongside a WT cell line. All mutants increased the mRNA level of hTERT, compared to WT melanoma cells, in the 6.6-34-fold range. […]

[2] = biological target: G146A 5-12 G-quadruplex of hTERT core promoter; test: FRET assay for Kd, G146A probe; type: binding, human
Description: FRET assay for compound screening and determination of Kd value. FRET probes of WT, G124/125A, and G146A of the 5-12 G-quadruplex were synthesized and labeled with FAM (Ex. 490 nm/Em. 520 nm) and TAMRA (Ex. 560 nm/Em. 580 nm) at each end by MGW Operon Inc. The WT probe (50 nM) was annealed in a buffer containing 10 mM Tris-HCl (pH 7.5) and 5 mM KCl by heating at 95° C. for 5 min and slowly cooling to room temperature. Compounds (50 μM) and probe were incubated for 1 h at room temperature. The same volume of DMSO served as a control. For Kd value determination, the WT, G124/125A, and G146A probes were annealed, and then several concentrations of compound were treated for 1 h at room temperature. Dose-dependent fluorescence intensity at 520 nm was measured by a microplate reader (BioTek Synergy HT). The data were corrected with the blank signal of buffer and compound. The relative fluorescence intensity compared to DMSO was used for binding curve fitting to determine Kd value using GraphPad Prism software.
The hTERT core promoter region includes 12 runs of consecutive guanines that form two G-quadruplexes in tandem on the G-rich strand. […] When the G-quadruplex is folded, two fluorophores are in proximity, which leads to a decrease in FAM fluorescence. […]

MCF7 cells = test: Cell cycle analysis by PI staining; type: cell-based, human; conditions: 48 h treatment
Description: Cell cycle analysis by PI staining. MCF7 cells were treated with GTC365 for 48 h. Cells were trypsinized and washed with cold D-PBS. Cell pellets were subjected to 70% EtOH fixation at −20° C. overnight. Cells were incubated with RNase A and PI for 3 h at 37° C. and then kept in ice before FACS analysis (FACScanto II, BD Biosciences, San Jose, Calif.).
Since knockdown of hTERT arrests the cell cycle in the G0/G1 phase, the effects of GTC365 on the cell cycle were evaluated. GTC365 increased the population of the G0/G1 (from 57% to 71%) and G2/M phases (from 10% to 19%), whereas the S-phase was decreased (from 33% to 10%) in a dose-dependent manner with 48 h treatment. […] It is known that various anticancer drugs induce SLP in different cancer cells, leading to mitotic catastrophe as well as apoptotic cell death. Doxorubicin, one of the representative anticancer drugs, induced apoptosis and mitotic catastrophe accompanied by multiple nuclei with SLP. GTC365, like doxorubicin, appears to arrest cell proliferation and induce cell death, apoptosis, or mitotic catastrophe through downregulation of hTERT.

BAX/BCL2 mRNA ratio = test: BAX/BCL2 ratio in MCF7 cells; type: cell-based, human; conditions: 0.5-1 μM, 72 h, relative to DMSO
Description: FIG. 11 is a graph showingincrease of BAX/BCL2 ratios by GTC365 in mRNA levels. MCF7 cells were treated with GTC365 for 72 h and then subjected to qPCR and immunoblot analysis. The relative ratio of BAX/BCL2 was determined compared with a DMSO-treated sample.
Indeed at 0.5-1 μM, the BAX/BCL2 ratio was increased by over 2-fold and the capase-3 activity was increased by 47% (FIGS. 11 and 12).

## N=C(N)NCCCS(=O)(=O)Nc1ccc(Nc2c3ccccc3nc3cc([N+](=O)[O-])ccc23)cc1 [GTC365]
[1]
  mRNA level of BCL2: decreased
[2]
  Kd value higher than WT and G124/125A: 1.5 fold
MCF7 cells; from 10% without compound
  population in G2/M phase: 19%
MCF7 cells; from 33% without compound
  population in S-phase: 10%
MCF7 cells; from 57% without compound
  population in G0/G1 phase: 71%
BAX/BCL2 mRNA ratio
  increase of BAX/BCL2 ratio: over 2 fold
